{"source": "patent US20120196854A1", "about": "“PHARMACEUTICAL COMPOSITION COMPRISING AROMATIC HETEROCYCLIC COMPOUND” (Kyowa Hakko Kirin Co., Ltd., priority 2009, published 2012)", "key": {"[1]": {"tested_on": "PGD2 production in mouse ear", "assay": "Inhibitory effect on PGD2 production in mouse ear caused by allergic reaction", "format": "in vivo", "conditions": "10 mg/kg orally, 1 hour before inducing antigen-antibody reaction; BALB/c mice", "description": "A test of PGD2 production in the mouse ear caused by allergic reaction was conducted according to the evaluation method of passive cutaneous anaphylaxis in the mouse ear by Inagaki et al. (Int.Arch.AllergyAppl. Immunol., 1988, 86 (3), 325-30) with some alteration. […]\nOne hour after the induction of antigen-antibody reaction, the mice were killed by cervical dislocation and the ears were cut off with scissors. […] The harvested pieces of ear tissue were immediately frozen in liquid nitrogen, and preserved at −80° C. until measurement of the quantity of PGD2.\nThe quantity of PGD2 was determined in the following manner. […]"}, "[2]": {"tested_on": "antigen-induced nasal congestion in rats", "assay": "Effect on antigen-induced nasal congestion in rats", "format": "in vivo, rat", "conditions": "10 mg/kg orally, 1 hour before nasal antigen; OVA-sensitized BN rats", "description": "Six-week-old male BN/CrljCrlj SPF/VAF rats were purchased from Charles River Japan (Hino, Kanagawa) and used for experiments. Equal amounts of a 0.4 mg/mL ovalbumin/saline solution (OVA: Grade III, Cat. No. A-5378, Sigma-Aldrich, St. Louis, Mo., USA) and a 20 mg/mL suspension of aluminum hydroxide (alum: Cat. No. 014-01925, Wako Pure Chemical Industries) in saline were mixed to give a sensitizing fluid. First, a suspension of inactivated killed pertussis bacteria (Cat. No. 15330-91, Nacalai Tesque, Tokyo) was doubly diluted with saline. The diluted suspension was subcutaneously administered on the back of each rat at a dose of 0.1 mL (containing 10 billion bacterial cells) per rat, and immediately after that, the sensitizing fluid was intraperitoneally administered at a dose of 1 mL per rat. […]\nThe nasal congestion was evaluated based on the elevation of the intranasal pressure determined in the following manner. […] The pressure inside the nasal cavity was detected using a pressure transducer branched from the end of the cannula for measurement, and analyzed using Win-PULMOS-III (M.I.P.S. Inc., Osaka). The pressure inside the nasal cavity was measured for 3 minutes immediately after the connection to the cannula for measurement and the artificial ventilator, and the data was calculated for a 3-minute average."}}, "data": [{"smiles": "O=C(O)c1cc(-c2ccco2)nc2ccc3nn(-c4ccccc4)nc3c12", "note": "[Compound 133, 7-(furan-2-yl)-2-phenyl-2H-[1,2,3]triazolo[4,5-f]quinoline-9-carboxylic acid]", "values": [{"measurement": "inhibition of PGD2 production in mouse ear caused by allergic reaction", "setting": "[1]", "value": 88, "unit": "%"}, {"measurement": "inhibition of antigen-induced nasal congestion (intranasal pressure)", "setting": "[2]", "value": 55, "unit": "%"}]}]}
